Data reported in US10544154B2, “Opioid receptor antagonist prodrugs” (Nirsum Laboratories, Inc., priority 2017, dated 2020).

How the values were obtained:
[1] = Polymorph screening of solid state drug substances; type: physicochemical; details: for Dry method and appearance: after stirring at 50 °C for 72 hours; for XRPD results (Dried): dried solid
[2] = Plasma stability, rat plasma (HPLC-MS); type: in vitro ADME; details: 10 μM, 37° C.
Method: Plasma stability determination of the test compounds in rat, dog, cynomolgus monkey and human plasma is performed using HPLC-MS. For rat, incubations are carried out in 96-well polypropylene plates in 5 aliquots of 70 μL each (one for each time point). […] Five time points are analyzed (0, 15, 120, 480 and 1440 min). For dog, monkey and human, test compounds (2 μM, final solvent concentration 1%) were also incubated at 37° C. and analyzed at five time points (0, 10, 30, 60 and 120 min). All incubations are performed in duplicates. The samples are analyzed by HPLC-MS. The percentage of parent compound remaining after incubation in plasma is determined.

[3] = Clinical observations for dogs in pharmacokinetic studies; type: in vivo, Beagle dogs; details: dog D1503, 96 mg/kg, Day 1
Method: Weight monitoring was done every week.
The dose formulation (concentration—400 mg base equivalents/ml in sesame oil+1% benzyl alcohol, unless otherwise specified) was administered via deep intramuscularly (unless otherwise specified). The injection vehicle was also dosed via deep intramuscular route (unless otherwise specified) on contralateral site of each animal at study initiation. The animals were sedated with Propofol at 6 mg/kg via IV administration. Following sedation hair was carefully removed from around the injection site and the area gently cleaned. Care will be taken to avoid irritating skin during shaving and cleaning the injection site. Then dogs will be dosed with deep IM administration. At least 2.5 cm depth from the surface into the central aspect of the quadriceps or biceps femoris muscle, by angling the needle toward the femur. If the needle hits the femur, simply draws back slightly and then inject. The dose volume will be determined by the animals' body weight collected on the morning of dosing day. For repeated administration, the injection sites may be rotated to minimize tissue injury.

SMILES | Dry method and appearance ([1]; Acetone) | XRPD results (Dried) ([1]; Acetone) | Dry method and appearance ([1]; EtOAc) | XRPD results (Dried) ([1]; EtOAc) | Dry method and appearance ([1]; Heptane) | XRPD results (Dried) ([1]; Heptane) | Dry method and appearance ([1]; Isopropanol) | XRPD results (Dried) ([1]; Isopropanol) | Dry method and appearance ([1]; MTBE) | XRPD results (Dried) ([1]; MTBE) | % remaining at time point in minutes, 0 min [2] | % remaining at time point in minutes, 15 min [2] | % remaining at time point in minutes, 120 min [2] | % remaining at time point in minutes, 480 min [2] | % remaining at time point in minutes, 1440 min [2] | Clinical observations (cell spans L-vehicle and R-TA) [3]
C=C1CC[C@@]2(O)C3Cc4ccc(OC(=O)CCCCCCCCCCCCCCCCCCC)c5c4[C@@]2(CCN3CC2CC2)[C@H]1O5 [Compound 16, (4aS,7aS,12bS)-3-(cyclopropylmethyl)-4a-hydroxy-7-methylene-2,3,4,4a,5,6,7,7a-octahydro-1H-4,12-methanobenzofuro[3,2-e]isoquinolin-9-yl icosanoate] | Evaporation/white powder | Pattern A | Evaporation/white powder | Pattern A | Centrifugation/white powder | Pattern A | Centrifugation/white powder | Pattern A | Evaporation/white powder | Pattern A |  |  |  |  |  | 
C=C1CC[C@@]2(O)C3Cc4ccc(OC(=O)OCCCCCCCC)c5c4[C@@]2(CCN3CC2CC2)[C@H]1O5 [Compound 17, (4aS,7aS,12bS)-3-(cyclopropylmethyl)-4a-hydroxy-7-methylene-2,3,4,4a,5,6,7,7a-octahydro-1H-4,12-methanobenzofuro[3,2-e]isoquinolin-9-yl octyl carbonate] |  |  |  |  |  |  |  |  |  |  | 100% | 0% | 0% | 0% | 0% | 
C=C1CC[C@@]2(O)C3Cc4ccc(OC(=O)OCCCCCCCCCC)c5c4[C@@]2(CCN3CC2CC2)[C@H]1O5 [Compound 18, (4aS,7aS,12bS)-3-(cyclopropylmethyl)-4a-hydroxy-7-methylene-2,3,4,4a,5,6,7,7a-octahydro-1H-4,12-methanobenzofuro[3,2-e]isoquinolin-9-yl decyl carbonate] |  |  |  |  |  |  |  |  |  |  | 100% | 0.6% | 0.3% | 0.1% | 0% | 
CCCCCCCCOC(=O)Oc1ccc2c3c1O[C@H]1C(=O)CC[C@@]4(O)C(C2)N(CC2CC2)CC[C@]314 [Compound 23, (4aS,7aR,12bS)-3-(cyclopropylmethyl)-4a-hydroxy-7-oxo-2,3,4,4a,5,6,7,7a-octahydro-1H-4,12-methanobenzofuro[3,2-e]isoquinolin-9-yl octyl carbonate] |  |  |  |  |  |  |  |  |  |  | 100% | 0% | 0% | 0% | 0% | 
C=C1CC[C@@]2(O)C3Cc4ccc(OC(=O)NC(C)(C)C)c5c4[C@@]2(CCN3CC2CC2)[C@H]1O5 [Compound 40, (4aS,7aS,12bS)-3-(cyclopropylmethyl)-4a-hydroxy-7-methylene-2,3,4,4a,5,6,7,7a-octahydro-1H-4,12-methanobenzofuro[3,2-e]isoquinolin-9-yl tert-butylcarbamate] | Evaporation/white powder | Amorphous | Evaporation/white powder | Pattern A | Centrifugation/white powder | Pattern A | Evaporation/oil | Amorphous | Evaporation/white powder | Amorphous |  |  |  |  |  | 
C=C1CC[C@@]2(O)C3Cc4ccc(OCOC(=O)CCCCCCCCCCCCC)c5c4[C@@]2(CCN3CC2CC2)[C@H]1O5 [Compound 45, (((4aS,7aS,12bS)-3-(cyclopropylmethyl)-4a-hydroxy-7-methylene-2,3,4,4a,5,6,7,7a-octahydro-1H-4,12-methanobenzofuro[3,2-e]isoquinolin-9-yl)oxy)methyl tetradecanoate] |  |  |  |  |  |  |  |  |  |  |  |  |  |  |  | Liquid feces about 20 mL
